According to ChEMBL document CHEMBL1649342, “Synthesis of azafluorenone antimicrobial agents” (2010):
In brackets after ≈: the same amount, converted by molar mass.

Key:
Type in all cases: functional
Staphylococcus aureus = experiment: Antimicrobial activity against Staphylococcus aureus NCTC 8530
Bacillus subtilis = experiment: Antimicrobial activity against Bacillus subtilis IFO 3007
Escherichia coli = experiment: Antimicrobial activity against Escherichia coli IFO 3545
Saccharomyces cerevisiae = experiment: Antimicrobial activity against Saccharomyces cerevisiae IFO 0203
Candida albicans = experiment: Antimicrobial activity against Candida albicans B311

MIC (Staphylococcus aureus): 50 µg/mL (≈ 256 µM) | MIC (Bacillus subtilis): 50 µg/mL (≈ 256 µM) | MIC (Escherichia coli): 50 µg/mL (≈ 256 µM) | MIC (Saccharomyces cerevisiae): 50 µg/mL (≈ 256 µM) | MIC (Candida albicans): 3.12 µg/mL (≈ 16 µM)
Structure (SMILES): Cc1ccnc2c1C(=O)c1ccccc1-2 [ONYCHINE]
